Assay results reported in patent US4843077A, “Isoquinoline derivatives having renal vasodilating properties and/or cardiotonic properties and/or phosphodiesterase inhibiting properties” (Ortho Pharmaceutical Corporation, priority 1987, dated 1989).
Like-named read-outs stand apart in the source and are kept apart here.

Columns and labels:
[1] = target: phosphodiesterase fraction III; test: Inhibition of phosphodiesterase fraction III activity; format: biochemical; conditions: cyclic AMP substrate 0.01-1.0 micromolar, pH 7.4, fraction III enzyme from canine heart
renal vasculature = test: Renal vasodilating activity in anesthetized dogs; format: in vivo, adult mongrel dogs; conditions: Canis lupus familiaris
Method: The following procedure is a variation of the assay described in that report.
Adult mongrel dogs were anesthetized and surgically prepared for electromagnetic measurement of renal artery blood flow. A carotid artery was cannulated for measuring arterial blood pressure and drugs were administered intravenously or intraarterially (via the renal artery). Heart rate was monitored with a cardiotachometer. Renal vascular resistance was calcualted as the ratio of mean arterial blood pressure to renal artery blood flow. Dopamine was infused intravenously at 3 μg/kg/min for ten minutes (at an infusion rate of about 1 ml/min) to determine responsiveness of each dog to renal dopamine receptor stimulation. Cumulative dose-response data were obtained by infusing a compound of this invention at progressively increasing (usually three-fold) infusion rates, each dose being infused for five minutes. The maximum percent change from pre-drug control in renal artery blood flow (or in renal vascular resistance) was determined for each infusion dose.

cardiac muscle = test: Acute in vivo cardiotonic activity in anesthetized dogs; set-up: species or system adult mongrel dogs; conditions: anesthetized dog, relative to control
Method: The acute in vivo cardiotonic activity of compounds prepared according to the present invention was determined according to a modification of the procedure described by Alousi et al., Circ. Res., 45, 666 (1979).
In particular, adult mongrel dogs were anesthetized with sodium pentobarbital and were artificially respired. Arterial pressure was monitored via a femoral artery, and the pulse pressure was used to trigger a cardiotachometer for heart rate. Left ventricular pressure was determined with a Millar catheter, and dP/dT (the change in ventricular pressure with time) was derived. Cardiac output was determined by measuring ascending aortic blood flow with an electromagnetic flow probe, and myocardial contractile foorce was measured with a Walton Brodie strain gauge sutured to the right ventricle. Lead II EKG was also recorded.
A standard dose (10 μg/kg/min) of dopamine was administered to assess myocardial responsiveness.
Compounds of the invention were administered by intravenous infusion and the effects on cardiovascular parameters were determined.
Dose related effects of the test compound on heart rate (HR), maximum change in left ventricular pressure with time (dP/dT), percent change in cardiac force (CF) and the change in mean arterial blood pressure (MABP) were compared to pretreatment control values and expressed as a percent change.

[2] = iv, read-out: RVR, percent change in renal vascular resistance
[3] = anesthetized dog, dose 6.2 mpk iv, relative to control, read-out: HR, percent change in heart rate
[4] = anesthetized dog, dose 6.2 mpk iv, relative to control, read-out: MABP, percent change in mean arterial blood pressure
[5] = anesthetized dog, dose 6.2 mpk iv, relative to control, read-out: RBF, percent change in renal blood flow
[6] = total dose 1.875 mpk iv infusion
[7] = iv, read-out: HR, percent change in heart rate
[8] = anesthetized dog, dose 1.2 mpk iv, relative to control, read-out: HR, percent change in heart rate
[9] = anesthetized dog, dose 1.2 mpk iv, relative to control, read-out: MABP, percent change in mean arterial blood pressure
[10] = anesthetized dog, dose 1.2 mpk iv, relative to control, read-out: RBF, percent change in renal blood flow
[11] = anesthetized dog, dose 1.2 mpk iv, relative to control, read-out: RVR, percent change in renal vascular resistance
[12] = total dose 1.938 mpk iv infusion

Molecule CNc1nc(C)c2cc(OC)c(OC)cc2c1[N+](=O)[O-] [Cmpd 2] has an IC50 [1] of 265 µM.

With CCCCNc1nc(C)c2cc(OC)c(OC)cc2c1[N+](=O)[O-] [Cmpd 3, 3-(n-Butylamino)-6,7-dimethoxy-1-methyl-4-nitroisoquinoline] the IC50 [1] was 250 µM.

Work on COc1cc2c(C)nc(NCc3ccccc3)c([N+](=O)[O-])c2cc1OC [Cmpd 4] yielded a change in vivo at 6.2 mg/kg (renal vasculature; [2]) of -14%, a change in vivo at 6.2 mg/kg (renal vasculature; [3]) of -15% and a change in vivo at 6.2 mg/kg (renal vasculature; [4]) of -6%. The change in vivo at 6.2 mg/kg (renal vasculature; [5]) was 9%.

CCN(CC)CCNc1nc(C)c2cc(OC)c(OC)cc2c1[N+](=O)[O-] [Cmpd 6] was tested, and the “CF, percent change in cardiac force” value (cardiac muscle; [6]) was 40 percent change, the “HR, percent change in heart rate” value (cardiac muscle; [6]) was -6 percent change and the “MABP, percent change in mean arterial blood pressure” value (“MABP, percent change” below) (cardiac muscle; [6]) was 4 percent change. The “dP/dt, maximum percent change in left ventricular pressure with time” value (“dP/dt, maximum percent change” below) (cardiac muscle; [6]) was 52 percent change.

Molecule COc1cc2c(C)nc(NCCN3CCN(c4ccccc4OC)CC3)c([N+](=O)[O-])c2cc1OC [Cmpd 8] has a change in vivo at 0.3 mg/kg (renal vasculature; [7]) of -6%, a change in vivo at 0.3 mg/kg (renal vasculature; anesthetized dog, dose 0.3 mpk iv, relative to control, read-out: MABP, percent change in mean arterial blood pressure) of -20% and a change in vivo at 0.3 mg/kg (renal vasculature; anesthetized dog, dose 0.3 mpk iv, relative to control, read-out: RBF, percent change in renal blood flow) of 10%. For the same molecule, the change in vivo at 0.3 mg/kg (renal vasculature; anesthetized dog, dose 0.3 mpk iv, relative to control, read-out: RVR, percent change in renal vascular resistance) was -27%.

For COc1cc2c(C)nc(NC3CCN(Cc4ccccc4)CC3)c([N+](=O)[O-])c2cc1OC [Cmpd 11], the IC50 [1] was 120 µM, the change in vivo at 6.2 mg/kg (renal vasculature; [2]) was -28% and the change in vivo at 6.2 mg/kg (renal vasculature; [3]) was -16%. For the same molecule, the change in vivo at 6.2 mg/kg (renal vasculature; [4]) was -13% and the change in vivo at 6.2 mg/kg (renal vasculature; [5]) was 28%.

For COc1cc2c(C)nc(Nc3ccccc3)c([N+](=O)[O-])c2cc1OC [Cmpd 12], the IC50 [1] was 250 µM, the change in vivo at 6.2 mg/kg (renal vasculature; [2]) was -32% and the change in vivo at 6.2 mg/kg (renal vasculature; [3]) was 2%. It also gave a change in vivo at 6.2 mg/kg (renal vasculature; [4]) of -3% and a change in vivo at 6.2 mg/kg (renal vasculature; [5]) of 42%.

Work on COc1cc2c(C)nc(N(C)C)c([N+](=O)[O-])c2cc1OC [Cmpd 13, 6,7-Dimethoxy-1-methyl-3-(N,N-dimethyl)amino-4-nitroisoquinoline] yielded an IC50 [1] of 10 µM, a change in vivo at 1.2 mg/kg (renal vasculature; [8]) of 17% and a change in vivo at 1.2 mg/kg (renal vasculature; [9]) of 16%. It also gave a change in vivo at 1.2 mg/kg (renal vasculature; [10]) of 60% and a change in vivo at 1.2 mg/kg (renal vasculature; [11]) of -23%.

For CCN(C)c1nc(C)c2cc(OC)c(OC)cc2c1[N+](=O)[O-] [Cmpd 14], the IC50 [1] was 25 µM, the “CF, percent change in cardiac force” value (cardiac muscle; [12]) was 21 percent change and the “HR, percent change in heart rate” value (cardiac muscle; [12]) was 8 percent change. For the same molecule, the “MABP, percent change” value (cardiac muscle; [12]) was 6 percent change and the “dP/dt, maximum percent change” value (cardiac muscle; [12]) was 20 percent change.

CCN(CC)c1nc(C)c2cc(OC)c(OC)cc2c1[N+](=O)[O-] [Cmpd 15] showed a change in vivo at 6.2 mg/kg (renal vasculature; [3]) of 4%, a change in vivo at 6.2 mg/kg (renal vasculature; [4]) of 0% and a change in vivo at 6.2 mg/kg (renal vasculature; [5]) of 8%. For the same molecule, the change in vivo at 6.2 mg/kg (renal vasculature; anesthetized dog, dose 6.2 mpk iv, relative to control, read-out: RVR, percent change in renal vascular resistance) was -8%.

CCN(CCN(C)C)c1nc(C)c2cc(OC)c(OC)cc2c1[N+](=O)[O-] [Cmpd 16] showed an IC50 [1] of 300 µM.

Work on COc1cc2c(C)nc(N3CCN(c4ccccc4)CC3)c([N+](=O)[O-])c2cc1OC [Cmpd 19] yielded an IC50 [1] of 150 µM, a change in vivo at 6.2 mg/kg (renal vasculature; [2]) of -18% and a change in vivo at 6.2 mg/kg (renal vasculature; [3]) of -5%. For the same molecule, the change in vivo at 6.2 mg/kg (renal vasculature; [4]) was 6% and the change in vivo at 6.2 mg/kg (renal vasculature; [5]) was 30%.

With COc1cc2c(C)nc(N(C)c3ccccc3)c([N+](=O)[O-])c2cc1OC [Cmpd 21] the IC50 [1] was 220 µM.

For CCCCSc1nc(C)c2cc(OC)c(OC)cc2c1[N+](=O)[O-] [Cmpd 23, 3-(n-Butylthio)-6,7-dimethoxy-1-methyl-4-nitroisoquinoline], the IC50 [1] was 280 µM, the change in vivo at 6.2 mg/kg (renal vasculature; iv, read-out: MABP, percent change in mean arterial blood pressure) was -1% and the change in vivo at 6.2 mg/kg (renal vasculature; [2]) was -15%. The change in vivo at 6.2 mg/kg (renal vasculature; [3]) was 4% and the change in vivo at 6.2 mg/kg (renal vasculature; [5]) was 16%.

Work on COc1cc2c(C)nc(Nc3ccccc3)c(N)c2cc1OC [Cmpd 25, 4-amino-6,7-dimethoxy-1-methyl-3-[(N-phenyl)amino]isoquinoline] yielded an IC50 [1] of 68 µM.

With COc1cc2c(C)nc(N(C)C)c(N)c2cc1OC [Cmpd 26, 4-Amino-6,7-dimethoxy-3-(N,N-dimethyl)amino-1-methylisoquinoline] the IC50 [1] was 14 µM.

CCCCNC(=O)Nc1c(Nc2ccccc2)nc(C)c2cc(OC)c(OC)cc12 [Cmpd 27] was tested, and the change in vivo at 1.2 mg/kg (renal vasculature; [7]) was -6%, the change in vivo at 1.2 mg/kg (renal vasculature; [9]) was 8% and the change in vivo at 1.2 mg/kg (renal vasculature; [10]) was 7%. It also gave a change in vivo at 1.2 mg/kg (renal vasculature; [11]) of 1%.

In the case of CCCCNC(=O)Nc1c(N(C)C)nc(C)c2cc(OC)c(OC)cc12 [Cmpd 28], the IC50 [1] is reported as 300 µM, the “CF, percent change in cardiac force” value (cardiac muscle; [6]) is reported as 20 percent change and the “HR, percent change in heart rate” value (cardiac muscle; [6]) is reported as 2 percent change. The “MABP, percent change” value (cardiac muscle; [6]) was 2 percent change and the “dP/dt, maximum percent change” value (cardiac muscle; [6]) was 16 percent change.

For C=CCNC(=O)Nc1c(N(C)C)nc(C)c2cc(OC)c(OC)cc12 [Cmpd 30], the IC50 [1] was 280 µM, the change in vivo at 1.2 mg/kg (renal vasculature; [2]) was -9% and the change in vivo at 1.2 mg/kg (renal vasculature; [8]) was 3%. It also gave a change in vivo at 1.2 mg/kg (renal vasculature; [9]) of 1% and a change in vivo at 1.2 mg/kg (renal vasculature; [10]) of 12%.
